For orientation: IC50 means the concentration at which inhibition is half-maximal. Lower therefore signals higher potency. In general, Kd refers to the free concentration of one partner at which half of the binding sites on the other are occupied at equilibrium, for simple one-to-one binding. By remaining activity is commonly meant the activity still measured, relative to the control.

Test [1] addresses T1, HsCYP51 (Homo sapiens, UniProt Q16850).
T1 construct: made in house; host or cells: E. coli
T1 sequence (Q16850 1-509): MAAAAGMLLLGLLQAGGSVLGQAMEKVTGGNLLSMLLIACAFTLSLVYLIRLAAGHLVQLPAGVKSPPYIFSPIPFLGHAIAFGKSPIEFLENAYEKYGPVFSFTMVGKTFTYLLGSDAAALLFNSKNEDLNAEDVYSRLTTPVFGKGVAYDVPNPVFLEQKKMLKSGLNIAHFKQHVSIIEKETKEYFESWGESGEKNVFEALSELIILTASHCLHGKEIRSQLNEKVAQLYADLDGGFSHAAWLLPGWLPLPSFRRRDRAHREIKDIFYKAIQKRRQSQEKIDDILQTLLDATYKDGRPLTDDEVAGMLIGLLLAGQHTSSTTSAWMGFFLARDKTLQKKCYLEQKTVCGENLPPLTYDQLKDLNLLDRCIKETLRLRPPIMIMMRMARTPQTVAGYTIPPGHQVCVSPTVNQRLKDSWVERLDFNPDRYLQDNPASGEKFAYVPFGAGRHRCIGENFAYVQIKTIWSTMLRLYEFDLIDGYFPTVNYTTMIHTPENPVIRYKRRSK
In words: CYP51 reconstitution assay, HsCYP51. The class given is biochemical. The note with it: for IC50: 0.3 µM HsCYP51, 50 µM lanosterol. The protocol: Azole antifungal agents were added in 5 µL DMSO followed by incubation for 5 minutes at 37°C prior to assay initiation with 4 mM β-NADPHNa4, with shaking for a further 10 minutes at 37°C. Sterol metabolites were recovered by extraction with ethyl acetate followed by derivatization with N,O-bis(trimethylsilyl)trifluoroacetamide and […] prior to analysis by gas chromatography mass spectrometry.

Test [2] concerns the target T2, Homo sapiens CYP51 (HsCYP51) (Homo sapiens, UniProt Q16850).
T2 construct: made in house; host or cells: E. coli
T2 sequence (Q16850 1-509): T1 sequence (Q16850 1-509)
Nature of the test: Azole binding to HsCYP51 (type II difference spectra titration). The note with it: for Kd: 5 µM HsCYP51, Morrison equation. The protocol: Native cytochrome P450 concentrations were determined by reduced carbon monoxide difference spectra, based on an extinction coefficient of 91 mM^−1 cm^−1 [42], [43]. Binding of azole antifungal agents to 5 µM CaCYP51 and 5 µM HsCYP51 were performed as previously described, [44], using 0.25 and 0.5 mg mL^−1 stock solutions of ketoconazole and ketaminazole in DMSO. Azole antifungal agents were progressively titrated against the CYP51 protein in 0.1 M Tris-HCl (pH 8.1) and 25% (wt/vol) glycerol, with the spectral difference determined after each incremental addition of azole. The dissociation constant (Kd) of the enzyme-azole complex was determined by nonlinear regression (Levenberg-Marquardt algorithm) of ΔA peak-trough against azole concentration using a rearrangement of the Morrison equation [45] and fitted by the computer program ProFit 6.1.12 (QuantumSoft, Zurich, Switzerland).

Test [3] has as its target T2, Homo sapiens CYP51 (HsCYP51). Set-up: method as in PMID 20149798. The note with it: ref [40]; read-out: Kd with HsCYP51, previously reported; cited from earlier work.

The structures appear in SMILES notation. Like-named read-outs stand apart in the source and are kept apart here.

On to `CC(=O)N1CCN(c2ccc(OCC3COC(Cn4ccnc4)(c4ccc(Cl)cc4Cl)O3)cc2)CC1` (stereo not shown) [ketoconazole, reference compound], for which the IC50 in test [1] is ~5 µM. For the same molecule, in test [1] (at 95 µM compound), the “HsCYP51 activity, in words” value is on record as “inactivated”. Besides, the Kd is 0.042 ± 0.016 µM in test [2] and ~0.18 µM in test [3]. Moreover, the “fold tighter binding to HsCYP51 compared to ketaminazole (16)” value in test [2] (ratio of Kd values) is 17 fold.
For `CC(=O)N1CCN(c2ccc(NCC3COC(Cn4ccnc4)(c4ccc(Cl)cc4Cl)O3)cc2)CC1` (stereo not shown) [ketaminazole (16), ketaminazole], in test [1], the IC50 is ~16 µM. The remaining activity at 155 µM in test [1] (HsCYP51, at 155 µM compound) is ~30%. Further, the “fold higher IC50 over ketoconazole with HsCYP51” value in test [1] (ratio of IC50 values) was 3 fold. For the same molecule, the Kd in test [2] came to 0.731 ± 0.069 µM. Besides, in test [2] (yeast vs human CYP51), the “selectivity for yeast CYP51 relative to human CYP51” value was determined as 17 fold.
